Reference: the NIST ThermoML archive (doi:10.1021/je4001894)
Numbers after ± are expanded uncertainties.

Test: activity coefficient (dimensionless); of the first substance listed, at infinite dilution; xn = mol fraction of the nth substance listed
Conditions: 101 kPa, Liquid, Chromatography, x1 = 0

Row | Structure (SMILES) | activity coefficient (323.15 K) | activity coefficient (333.15 K) | activity coefficient (343.15 K)
1 | ClC(Cl)Cl [trichloromethane] + CCCC[N+]1(C)CCCC1.O=S(=O)([N-]S(=O)(=O)C(F)(F)F)C(F)(F)F | 0.83 ± 0.05 | 0.86 ± 0.06 | 0.88 ± 0.06
2 | CCCCCCCC [octane] + CCC[N+]1(C)CCCC1.O=S(=O)([N-]S(=O)(=O)C(F)(F)F)C(F)(F)F | 35.8 ± 2.5 | 31.1 ± 2.1 | 30.6 ± 2.1
3 | c1ccccc1 [benzene] + CCCC[N+]1(C)CCCC1.O=S(=O)([N-]S(=O)(=O)C(F)(F)F)C(F)(F)F | 0.92 ± 0.06 | 0.93 ± 0.06 | 0.94 ± 0.06
4 | CCCC(C)=O [pentan-2-one] + CCC[N+]1(C)CCCC1.O=S(=O)([N-]S(=O)(=O)C(F)(F)F)C(F)(F)F | 0.88 ± 0.06 | 0.88 ± 0.06 | 0.91 ± 0.06
5 | CCOCC [diethyl ether] + CCCC[N+]1(C)CCCC1.O=S(=O)([N-]S(=O)(=O)C(F)(F)F)C(F)(F)F | 2.53 ± 0.17 | 2.54 ± 0.17 | 2.6 ± 0.18
6 | ClC(Cl)(Cl)Cl [tetrachloromethane] + CCCC[N+]1(C)CCCC1.O=S(=O)([N-]S(=O)(=O)C(F)(F)F)C(F)(F)F | 2.44 ± 0.17 | 2.45 ± 0.17 | 2.47 ± 0.17
7 | C1COCCO1 [1,4-dioxane] + CCCC[N+]1(C)CCCC1.O=S(=O)([N-]S(=O)(=O)C(F)(F)F)C(F)(F)F | 0.71 ± 0.05 | 0.72 ± 0.05 | 0.72 ± 0.05
8 | c1ccsc1 [thiophene] + CCC[N+]1(C)CCCC1.O=S(=O)([N-]S(=O)(=O)C(F)(F)F)C(F)(F)F | 0.86 ± 0.06 | 0.88 ± 0.06 | 0.89 ± 0.06
9 | C#CCCCC [1-hexyne] + CCC[N+]1(C)CCCC1.O=S(=O)([N-]S(=O)(=O)C(F)(F)F)C(F)(F)F | 3.35 ± 0.23 | 3.18 ± 0.22 | 3.01 ± 0.2
10 | CC1CCCCC1 [methylcyclohexane] + CCCC[N+]1(C)CCCC1.O=S(=O)([N-]S(=O)(=O)C(F)(F)F)C(F)(F)F | 11.5 ± 0.79 | 10.7 ± 0.73 | 10.1 ± 0.69
11 | CCCCCCC [heptane] + CCCC[N+]1(C)CCCC1.O=S(=O)([N-]S(=O)(=O)C(F)(F)F)C(F)(F)F | 19.7 ± 1.4 | 18.4 ± 1.3 | 17.5 ± 1.2
12 | CC(C)OC(C)C [diisopropyl ether] + CCCC[N+]1(C)CCCC1.O=S(=O)([N-]S(=O)(=O)C(F)(F)F)C(F)(F)F | 5.19 ± 0.35 | 5.28 ± 0.36 | 5.4 ± 0.37
13 | CCCCCCCCCCCC [dodecane] + CCCC[N+]1(C)CCCC1.O=S(=O)([N-]S(=O)(=O)C(F)(F)F)C(F)(F)F | 105 ± 7.2 | 93.8 ± 6.4 | 83 ± 5.7
14 | CCc1ccccc1 [ethylbenzene] + CCCC[N+]1(C)CCCC1.O=S(=O)([N-]S(=O)(=O)C(F)(F)F)C(F)(F)F | 1.83 ± 0.12 | 1.85 ± 0.12 | 1.87 ± 0.13
15 | CCC(=O)CC [pentan-3-one] + CCC[N+]1(C)CCCC1.O=S(=O)([N-]S(=O)(=O)C(F)(F)F)C(F)(F)F | 0.84 ± 0.05 | 0.82 ± 0.05 | 0.86 ± 0.06
16 | C1CCCCCC1 [cycloheptane] + CCC[N+]1(C)CCCC1.O=S(=O)([N-]S(=O)(=O)C(F)(F)F)C(F)(F)F | 29.1 ± 2 | 43 ± 2.9 | 54.7 ± 3.8
17 | Cc1ccccc1C [1,2-dimethylbenzene] + CCC[N+]1(C)CCCC1.O=S(=O)([N-]S(=O)(=O)C(F)(F)F)C(F)(F)F | 1.78 ± 0.12 | 1.83 ± 0.12 | 1.87 ± 0.13

Row | Structure (SMILES) | activity coefficient (323.15 K) | activity coefficient (333.15 K) | activity coefficient (343.15 K)
18 | C1CCCCCC1 [cycloheptane] + CCCC[N+]1(C)CCCC1.O=S(=O)([N-]S(=O)(=O)C(F)(F)F)C(F)(F)F | 23.9 ± 1.6 | 32 ± 2.2 | 41.7 ± 2.9
19 | C1CCCCC1 [cyclohexane] + CCCC[N+]1(C)CCCC1.O=S(=O)([N-]S(=O)(=O)C(F)(F)F)C(F)(F)F | 8.74 ± 0.6 | 7.96 ± 0.54 | 7.59 ± 0.52
20 | CC(C)OC(C)C [diisopropyl ether] + CCC[N+]1(C)CCCC1.O=S(=O)([N-]S(=O)(=O)C(F)(F)F)C(F)(F)F | 5.88 ± 0.4 | 5.75 ± 0.39 | 5.53 ± 0.38
21 | CCCCCCC [heptane] + CCC[N+]1(C)CCCC1.O=S(=O)([N-]S(=O)(=O)C(F)(F)F)C(F)(F)F | 24 ± 1.6 | 23.1 ± 1.6 | 22.3 ± 1.5
22 | Cc1ccccc1 [toluene] + CCC[N+]1(C)CCCC1.O=S(=O)([N-]S(=O)(=O)C(F)(F)F)C(F)(F)F | 1.37 ± 0.09 | 1.38 ± 0.09 | 1.45 ± 0.1
23 | Cc1cccc(C)c1 [1,3-dimethylbenzene] + CCCC[N+]1(C)CCCC1.O=S(=O)([N-]S(=O)(=O)C(F)(F)F)C(F)(F)F | 1.78 ± 0.12 | 1.8 ± 0.12 | 1.83 ± 0.12
24 | Cc1ccc(C)cc1 [1,4-dimethylbenzene] + CCCC[N+]1(C)CCCC1.O=S(=O)([N-]S(=O)(=O)C(F)(F)F)C(F)(F)F | 1.78 ± 0.12 | 1.8 ± 0.12 | 1.81 ± 0.12
25 | C1CCCCC1 [cyclohexane] + CCC[N+]1(C)CCCC1.O=S(=O)([N-]S(=O)(=O)C(F)(F)F)C(F)(F)F | 10.2 ± 0.7 | 9.53 ± 0.65 | 8.53 ± 0.58
26 | CCC(C)CC [3-methylpentane] + CCC[N+]1(C)CCCC1.O=S(=O)([N-]S(=O)(=O)C(F)(F)F)C(F)(F)F | 14.3 ± 0.98 | 13.5 ± 0.92 | 11.7 ± 0.8
27 | CCOCC [diethyl ether] + CCC[N+]1(C)CCCC1.O=S(=O)([N-]S(=O)(=O)C(F)(F)F)C(F)(F)F | 2.62 ± 0.18 | 2.7 ± 0.18 | 2.75 ± 0.19
28 | CC#N [acetonitrile] + CCCC[N+]1(C)CCCC1.O=S(=O)([N-]S(=O)(=O)C(F)(F)F)C(F)(F)F | 0.52 ± 0.04 | 0.51 ± 0.04 | 0.5 ± 0.04
29 | CCCO [propan-1-ol] + CCC[N+]1(C)CCCC1.O=S(=O)([N-]S(=O)(=O)C(F)(F)F)C(F)(F)F | 2.17 ± 0.15 | 1.95 ± 0.13 | 1.79 ± 0.12
30 | C#CCCCCC [1-heptyne] + CCC[N+]1(C)CCCC1.O=S(=O)([N-]S(=O)(=O)C(F)(F)F)C(F)(F)F | 4.52 ± 0.31 | 4.52 ± 0.31 | 4.51 ± 0.31
31 | CCN(CC)CC [triethylamine] + CCCC[N+]1(C)CCCC1.O=S(=O)([N-]S(=O)(=O)C(F)(F)F)C(F)(F)F | 7.07 ± 0.48 | 7.07 ± 0.48 | 7.09 ± 0.48
32 | CCC(C)=O [butanone] + CCCC[N+]1(C)CCCC1.O=S(=O)([N-]S(=O)(=O)C(F)(F)F)C(F)(F)F | 0.54 ± 0.04 | 0.5 ± 0.04 | 0.46 ± 0.04
33 | ClCCl [dichloromethane] + CCCC[N+]1(C)CCCC1.O=S(=O)([N-]S(=O)(=O)C(F)(F)F)C(F)(F)F | 0.66 ± 0.05 | 0.7 ± 0.05 | 0.73 ± 0.05
34 | CC1CCCC1 [methylcyclopentane] + CCC[N+]1(C)CCCC1.O=S(=O)([N-]S(=O)(=O)C(F)(F)F)C(F)(F)F | 10.3 ± 0.7 | 10.3 ± 0.7 | 9.16 ± 0.63
